Holding throughout (type): cell-based
The test system of assay [1] is Wnt activity (Sp5-Luc reporter, SW480 colon carcinoma cells). Description: Wnt activity screening assay, Sp5-Luc reporter gene in SW480 cells. The following applies: Homo sapiens; for inhibition at 10 µM: given where EC50 >10 μM, read-out: percent inhibition at 10 μM; for EC50: overnight incubation. In short, it runs like this: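 SW480 cells stably transduced with an Sp5 promoter (eight TCF/LEF sites)–firefly luciferase lentiviral reporter, plated at 4,000 cells/well in 1% FBS medium with compounds (10-point 1:3 series from 10 μM, 0.1% DMSO) overnight at 37 °C. BrightGlo luminescence normalised to DMSO; EC50 by four-parameter fit, else % inhibition at 10 μM.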
In general terms: In a reporter assay the amount or activity of a reporter protein is the signal.

Assay [2] has as its system SW480 colon cancer cells. Kind of assay: Cell viability assay (CellTiter-Blue). The following applies: Homo sapiens, 96 h, four days; for inhibition at 10 µM: given where EC50 >10 μM, read-out: percent inhibition at 10 μM. In short, it runs like this: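 SW480 cells (~2×10^3 per well) were exposed to compound for four days at 37 °C/5% CO2, using 8-point 1:3 dilutions from 10 μM to 0.0045 μM in duplicate. Viability was read by resazurin reduction (CellTiter-Blue, ~3 h, Ex 560/Em 590 nm). EC50 came from non-linear regression; above 10 μM, percent inhibition at 10 μM is given.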

Assay [3] deals with IL-6 (THP-1 cells). Description: IL-6 inhibition in LPS-stimulated THP-1 cells (HTRF). The following applies: Homo sapiens; for EC50: IL-6 in THP-1 cells, LPS 500 ng/mL, 22 hours; for inhibition at 10 µM: given where EC50 >10 μM, IL-6, THP-1 cells, LPS, read-out: percent inhibition at 10 μM. In short, it runs like this: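 THP-1 cells, serum-reduced (1% FBS) for 24 h, were preincubated with compound (10-point 1:3 series from 10 μM, 0.1% DMSO) for 2 h, then stimulated with 500 ng/mL LPS for 22 h at 37° C. IL-6 was read by HTRF (665/620 nm ratio) and normalized to DMSO. EC50 from four-parameter fit; % inhibition at 10 μM given if EC50 >10 μM.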

Turning to `CCCCC(=O)Nc1cncc(-c2cc3c(-c4cc5c(-c6cccnc6)ccnc5[nH]4)n[nH]c3cn2)c1` [Compound 103, N-(5-(3-(4-(Pyridin-3-yl)-1H-pyrrolo[2,3-b]pyridin-2-yl)-1H-pyrazolo[3,4-c]pyridin-5-yl)pyridin-3-yl)pentanamide], the inhibition at 10 µM in assay [1] is 7.8%; in assay [2], 7.4%; in assay [3], 17.8%. Further, the EC50 in assay [1], in assay [2] and in assay [3] was > 10 µM throughout.

Regarding `Oc1cncc(-c2cc3c(-c4cc5c(-c6ccc(F)cc6)ccnc5[nH]4)n[nH]c3cn2)c1` [Compound 533, 5-(3-(4-(4-Fluorophenyl)-1H-pyrrolo[2,3-b]pyridin-2-yl)-1H-pyrazolo[3,4-c]pyridin-5-yl)pyridin-3-ol], the EC50 in assay [1] is 0.456 µM; in assay [2], 0.483 µM; in assay [3], > 10 µM. The inhibition at 10 µM in assay [3] was determined as 7.2%.

Take `O=C(Nc1cncc(-c2cc3c(-c4cc5c(-c6ccc(F)cc6)ccnc5[nH]4)n[nH]c3cn2)c1)C1CCC1` [Compound 49, N-(5-(3-(4-(4-Fluorophenyl)-1H-pyrrolo[2,3-b]pyridin-2-yl)-1H-pyrazolo [3,4-c]pyridin-5-yl)pyridin-3-yl)cyclobutanecarboxamide]: the EC50 in assay [1] was 0.747 µM; in assay [2], 4.64 µM; in assay [3] it was > 10 µM. The inhibition at 10 µM in assay [3] is 26.1%.

With `CN(C)Cc1cncc(-c2cc3c(-c4cc5c(-c6ccncc6)ccnc5[nH]4)n[nH]c3cn2)c1` [Compound 125, N,N-Dimethyl-1-(5-(3-(4-(pyridin-4-yl)-1H-pyrrolo[2,3-b]pyridin-2-yl)-1H-pyrazolo[3,4-c]pyridin-5-yl)pyridin-3-yl)methanamine], the inhibition at 10 µM in assay [1] came out at 12.6%; in assay [2], 3.9%; in assay [3] it was 34.4%. For the same molecule, the concentration for a half-maximal effect (EC50) in assay [1], in assay [2] and in assay [3] was > 10 µM in each case.

With `O=C(Nc1cncc(-c2cc3c(-c4cc5c(-c6cccc(F)c6)ccnc5[nH]4)n[nH]c3cn2)c1)c1ccccc1` [Compound 11, N-(5-(3-(4-(3-Fluorophenyl)-1H-pyrrolo[2,3-b]pyridin-2-yl)-1H-pyrazolo [3,4-c]pyridin-5-yl)pyridin-3-yl)benzamide], the inhibition at 10 µM in assay [1] was 8.2%; in assay [2], 46.8%; in assay [3] it was 38.9%. The 50% effective concentration (EC50) in assay [1], in assay [2] and in assay [3] was > 10 µM throughout.

With `O=C(Cc1ccccc1)Nc1cncc(-c2cc3c(-c4cc5c(-c6ccccc6F)ccnc5[nH]4)n[nH]c3cn2)c1` [Compound 66, N-(5-(3-(4-(2-Fluorophenyl)-1H-pyrrolo[2,3-b]pyridin-2-yl)-1H-pyrazolo [3,4-c]pyridin-5-yl)pyridin-3-yl)-2-phenylacetamide], the figures for the concentration giving a half-maximal response (EC50) in assay [1], in assay [2] and in assay [3] were 0.139 µM, 0.62 µM and > 10 µM, respectively. Also, the inhibition at 10 µM in assay [3] was found to be 35.8%.

For the molecule `O=C(Nc1cncc(-c2cc3c(-c4cc5c(-c6ccncc6)ccnc5[nH]4)n[nH]c3cn2)c1)C1CCC1` [Compound 133, N-(5-(3-(4-(Pyridin-4-yl)-1H-pyrrolo[2,3-b]pyridin-2-yl)-1H-pyrazolo[3,4-c]pyridin-5-yl)pyridin-3-yl)cyclobutanecarboxamide], the inhibition at 10 µM came out at 1.8% in assay [1], 3.7% in assay [2] and 11.9% in assay [3]. The half-maximal effective concentration (EC50) in assay [1], in assay [2] and in assay [3] was > 10 µM throughout.

As usually defined, the inhibition is the percentage by which the read-out fell short of the control. The EC50 is the concentration needed to bring the measured effect to its halfway point. A low value points to greater potency.

(Values after patent US10285982B2, “3-(1H-pyrrolo[2,3-B]pyridin-2-yl)-1H-pyrazolo[3,4-C]pyridines and therapeutic uses thereof” (Samumed, LLC, priority 2015, dated 2019).)
